Laboratory results: patent publication US20060088545A1, “Use of inhibitors of the protease of the human immunodeficiency virus (hiv) to block cell migration and/or invasion, tissue infiltration and oedema for the therary of diseases associated therewith” (priority 2001, published 2006)

Tested on: angiogenesis induced by bFGF or VEGF in the chorioallantoic membrane
Procedure: CAM assays were performed with 1 mm^3 sterilized gelatin sponges (Gelfoam; Upjohn Co, Kalamazoo, Mich.) adsorbed with bFGF or VEGF (1 μg or 100 ng, respectively) in 5 μl of PBS, and with buffer, HIV-PI (10 μM) or taxol (250 nM) (Bristol-Myers Squibb Co., Princeton, N.J.) as described (Ribatti et al, Int. J. Dev. Biol., 1996). CAM were examined daily until day 12 under an Olympus SZX9 stereomicroscope. Images (1024×1024 pixels) were captured at a distance of 2 mm from the edge of the sponge using a cooled digital CCD Hamamatsu ORCA camera (Hamamatsu Photonics Italia, Arese, Italy). Vessel number was quantified with the ImageProPlus 4.0 imaging software (Media Cybernetics, Silver Spring, Md.) in 3 randomly selected areas per egg ([…]).
Results are expressed as the average number of vessels/mm^2±SD from the indicated number of CAM per experimental condition.

Question: Which results are given for CC(=O)O[C@H]1C(=O)[C@@]2(C)[C@H]([C@H](OC(=O)c3ccccc3)[C@]3(O)C[C@H](OC(=O)[C@H](O)[C@@H](NC(=O)c4ccccc4)c4ccccc4)C(C)=C1C3(C)C)[C@]1(OC(C)=O)CO[C@@H]1C[C@@H]2O [Taxol, taxol]?
Answer: Average vessel (number/mm^2 ± SD) (bFGF 1 μg, HIV-PI 10 μM, taxol 250 nM): 7.71 ± 1.63 number/mm^2; basal CAM vascularization (drug administered alone): did not affect; toxicity in CAM (in vivo): not associated with toxicity
